Measurements published in patent publication US8754071B2 (priority 2011, dated 2014).

What follows are compounds tested against T1, c-kit (Homo sapiens, UniProt P10721) (assay: Mo7e cell proliferation assay (SCF dependent proliferation)). Conditions: Table 1; human Mo7e cells stimulated with SCF, 48 hours, CellTiter Glo; 1% FBS; read-out: c-kit (Mo7e).
T1 construct: human Mo7e cells which endogenously express c-kit; endogenous in cells; host or cells: human Mo7e cells (promegakaryocytic leukemia line), stimulated with human recombinant SCF
T1 sequence (P10721 26-976): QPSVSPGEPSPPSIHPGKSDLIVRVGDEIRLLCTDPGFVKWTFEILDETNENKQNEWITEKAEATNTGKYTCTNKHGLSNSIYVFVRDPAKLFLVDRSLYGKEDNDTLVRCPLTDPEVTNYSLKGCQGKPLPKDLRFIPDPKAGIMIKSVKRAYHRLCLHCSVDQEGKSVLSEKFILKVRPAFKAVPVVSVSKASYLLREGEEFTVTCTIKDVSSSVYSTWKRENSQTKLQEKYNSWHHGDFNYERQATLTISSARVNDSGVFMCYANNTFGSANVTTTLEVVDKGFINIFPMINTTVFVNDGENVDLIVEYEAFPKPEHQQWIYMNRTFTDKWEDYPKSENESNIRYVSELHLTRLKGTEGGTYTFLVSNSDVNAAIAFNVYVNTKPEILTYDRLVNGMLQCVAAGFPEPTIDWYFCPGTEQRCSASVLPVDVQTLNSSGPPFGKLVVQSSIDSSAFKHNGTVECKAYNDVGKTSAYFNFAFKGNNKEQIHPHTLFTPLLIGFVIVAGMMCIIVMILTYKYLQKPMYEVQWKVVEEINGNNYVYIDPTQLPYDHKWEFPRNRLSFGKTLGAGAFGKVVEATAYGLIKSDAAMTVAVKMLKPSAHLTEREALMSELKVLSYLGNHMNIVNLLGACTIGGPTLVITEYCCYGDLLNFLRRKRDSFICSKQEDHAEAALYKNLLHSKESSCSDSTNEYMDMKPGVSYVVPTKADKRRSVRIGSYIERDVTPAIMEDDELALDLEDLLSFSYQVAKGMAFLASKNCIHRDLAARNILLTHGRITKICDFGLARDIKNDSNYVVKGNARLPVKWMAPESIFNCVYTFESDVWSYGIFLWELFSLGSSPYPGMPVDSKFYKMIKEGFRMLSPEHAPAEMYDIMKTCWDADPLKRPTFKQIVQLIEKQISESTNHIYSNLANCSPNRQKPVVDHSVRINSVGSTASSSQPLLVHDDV
Format: cell-based
Method: Mo7e Cell Proliferation Assay The compounds of Table 1 and Table 2 were tested for inhibition of SCF dependent proliferation using human Mo7e cells which endogenously express c-kit in a 384 well format. […] After 48 hours of incubation at 37° C., cell viability was measured by adding 25 uL of CellTiter Glo (Promega) to the cells and the luminescence was measured by a […] camera (Molecular Devices). […] The IC50 value is given as that concentration of the test compound in question that provoke a response halfway between the baseline and maximum responses.
`[2H]c1c([2H])c([2H])n2c(C(=O)Nc3cc(-c4noc(C5CN(C(=O)OC)C5)n4)ccc3C)cnc2c1[2H]` [F76, methyl 3-(3-(4-methyl-3-(5,6,7,8-(D4)imidazo[1,2-a]pyridine-3-carboxamido)phenyl)-1,2,4-oxadiazol-5-yl)azetidine-1-carboxylate] was tested, and the IC50 was 51 nM. `COC(=O)NC1(c2nc(-c3ccc(C)c(NC(=O)c4cnc5ccccn45)c3)no2)COC1` [F26, methyl (3-(3-(3-(imidazo[1,2-a]pyridine-3-carboxamido)-4-methylphenyl)-1,2,4-oxadiazol-5-yl)oxetan-3-yl)carbamate] was tested, and the IC50 was 103 nM. `Cc1ccc(-c2noc(CN3CC(F)(F)C(F)(F)C3)n2)cc1NC(=O)c1cnc2ccccn12` [F42] was tested, and the IC50 was 13 nM. For `Cc1ccn2c(C(=O)Nc3cc(-c4noc(N5CCCC(C(F)(F)F)C5)n4)ccc3C)cnc2c1` (stereo not drawn) [F93], the IC50 was 48 nM. Work on `[2H]c1ccc2ncc(C(=O)Nc3cc(-c4noc(C5CN(C(=O)OC)C5)n4)ccc3C)n2c1` [F98] yielded an IC50 of 43 nM. With `COC(=O)N1CC(c2nc(-c3ccc(C)c(NC(=O)c4cnc5ccc(C(F)(F)F)cn45)c3)no2)C1` [F52, methyl 3-(3-(4-methyl-3-(6-(trifluoromethyl)imidazo[1,2-a]pyridine-3-carboxamido)phenyl)-1,2,4-oxadiazol-5-yl)azetidine-1-carboxylate] the IC50 was 218 nM. With `COC(=O)N1CC(c2nc(-c3ccc(C)c(NC(=O)c4cnc5cc(C)ccn45)c3)no2)C1` [F61, methyl 3-(3-(4-methyl-3-(7-methylimidazo[1,2-a]pyridine-3-carboxamido)phenyl)-1,2,4-oxadiazol-5-yl)azetidine-1-carboxylate] the IC50 was 26 nM. Work on `Cc1ccc(-c2noc(N3CCC3)n2)cc1NC(=O)c1cnc2ccccn12` [F77, N-(5-(5-(azetidin-1-yl)-1,2,4-oxadiazol-3-yl)-2-methylphenyl)imidazo[1,2-a]pyridine-3-carboxamide] yielded an IC50 of 132 nM. Work on `Cc1ccn2c(C(=O)Nc3cc(-c4noc(N5CCC(F)(F)CC5)n4)ccc3C)cnc2c1` [F89] yielded an IC50 of 31 nM. Work on `COC(=O)N1CC(c2nc(-c3ccc(C)c(NC(=O)c4cnc5ccc(CCC(C)(C)O)cn45)c3)no2)C1` [F67, methyl 3-(3-(3-(6-(3-hydroxy-3-methylbutyl)imidazo[1,2-a]pyridine-3-carboxamido)-4-methylphenyl)-1,2,4-oxadiazol-5-yl)azetidine-1-carboxylate] yielded an IC50 of 29 nM. `Cc1ccc(-c2noc([C@H]3CCC(F)(F)CO3)n2)cc1NC(=O)c1cnc2ccccn12` [F12] was tested, and the IC50 was 32 nM. `Cc1ccc(-c2noc(C3CN(S(C)(=O)=O)C3)n2)cc1NC(=O)c1cnc2ccccn12` [F14] gave an IC50 of 42 nM. Compound `Cc1ccn2c(C(=O)Nc3cc(-c4noc(N5CC(C)(O)C5)n4)ccc3C)cnc2c1` [F88] has an IC50 of 62 nM. Compound `Cc1ccc(Nc2noc([C@@H]3CCCO3)n2)cc1NC(=O)c1cnc2ccccn12` [F72] has an IC50 of 6 nM. For `[2H]C([2H])([2H])c1ccn2c(C(=O)Nc3cc(-c4noc(C5CN(C(=O)OC)C5)n4)ccc3C)cnc2c1` [F80, methyl 3-(3-(4-methyl-3-(7-methyl-d3-imidazo[1,2-a]pyridine-3-carboxamido)phenyl)-1,2,4-oxadiazol-5-yl)azetidine-1-carboxylate], the IC50 was 44 nM. With `COC(=O)N1CC(c2nc(-c3ccc(C)c(NC(=O)c4cnc5ccc(COCC(F)F)cn45)c3)no2)C1` [F95, methyl 3-(3-(3-(6-((2,2-difluoroethoxy)methyl)imidazo[1,2-a]pyridine-3-carboxamido)-4-methylphenyl)-1,2,4-oxadiazol-5-yl)azetidine-1-carboxylate] the IC50 was 19 nM. `CCOC(=O)N1CC(c2nc(-c3ccc(C)c(NC(=O)c4cnc5ccccn45)c3)no2)C1` [F53] gave an IC50 of 93 nM. `CCS(=O)(=O)N1CC(c2nc(-c3ccc(F)c(NC(=O)c4cnc5ccccn45)c3)no2)C1` [F28, N-(5-(5-(1-(ethylsulfonyl)azetidin-3-yl)-1,2,4-oxadiazol-3-yl)-2-fluorophenyl)imidazo[1,2-a]pyridine-3-carboxamide] showed an IC50 of 120 nM. In the case of `Cc1ccc(-c2noc(C3CCCCO3)n2)cc1NC(=O)c1cnc2ccccn12` (stereo not drawn) [F8], the IC50 is reported as 42 nM. `Cc1ccc(-c2noc(C3(C)CN(S(C)(=O)=O)C3)n2)cc1NC(=O)c1cnc2ccccn12` [F58] gave an IC50 of 89 nM.

Same assay, conditions: Table 2; human Mo7e cells stimulated with SCF, 48 hours, CellTiter Glo; 1% FBS; read-out: c-kit (Mo7e)
For `Cc1ccc(-c2noc(C3CCOCC3)n2)cc1NC(=O)c1cnc2ccccn12` [F102], the IC50 was 286 nM. Compound `Cc1ccc(-c2noc([C@@H]3CN(C(=O)OC(C)(C)C)CCO3)n2)cc1NC(=O)c1cnc2ccccn12` [F122] has an IC50 of 296 nM. `Cc1ccc(-c2noc(C3CN(S(=O)(=O)C4CCN(C(=O)OC(C)(C)C)C4)C3)n2)cc1NC(=O)c1cnc2ccccn12` (stereo not drawn) [F162] gave an IC50 of 249 nM. In the case of `Cc1ccc(-c2noc([C@@H]3C[C@H](O)CN3S(C)(=O)=O)n2)cc1NC(=O)c1cnc2ccc(F)cn12` [F287], the IC50 is reported as 1680 nM. With `Cc1ccc(-c2noc(C3CN(C(=O)OC(C)C)C3)n2)cc1NC(=O)c1cnc2ccccn12` [F234] the IC50 was 245 nM. With `Cc1nc(N2CC(c3nc(-c4ccc(C)c(NC(=O)c5cnc6ccccn56)c4)no3)C2)no1` [F244] the IC50 was 176 nM. `Cn1cc(S(=O)(=O)N2CC(c3nc(-c4ccc(F)c(NC(=O)c5cnc6ccccn56)c4)no3)C2)cn1` [F224] showed an IC50 of 854 nM. In the case of `Cc1ccc(-c2noc([C@@H]3CCCN3)n2)cc1NC(=O)c1cnc2ccccn12` [F190], the IC50 is reported as 476 nM. `Cc1ccn2c(C(=O)Nc3cc(-c4noc(N5CCN6C(=O)OC[C@@H]6C5)n4)ccc3C)cnc2c1` [F255] showed an IC50 of 129 nM. Compound `O=C(Nc1cc(-c2noc(CN3CC(F)(F)C3)n2)ccc1F)c1cnc2ccccn12` [F228] has an IC50 of 341 nM. `O=C(Nc1cc(-c2noc(C3CN(S(=O)(=O)C(F)F)C3)n2)ccc1F)c1cnc2ccccn12` [F223] showed an IC50 of 151 nM. `COC(=O)N1CCC(c2nc(-c3ccc(C)c(NC(=O)c4cnc5ccccn45)c3)no2)C1` (stereo not drawn) [F169] was tested, and the IC50 was 132 nM. In the case of `CC(=O)N1CCC(c2nc(-c3ccc(C)c(NC(=O)c4cnc5ccccn45)c3)no2)C1` (stereo not drawn) [F171], the IC50 is reported as 240 nM. For `Cc1ccc(-c2noc(CN3CCOC3=O)n2)cc1NC(=O)c1cnc2ccccn12` [F142], the IC50 was 578 nM. With `Cc1ccc(-c2noc(C3CN(S(=O)(=O)C4CCOCC4)C3)n2)cc1NC(=O)c1cnc2ccccn12` [F160] the IC50 was 380 nM. Compound `CCN1CC(c2nc(-c3ccc(C)c(NC(=O)c4cnc5ccccn45)c3)no2)C1` [F271] has an IC50 of 1120 nM. In the case of `Cc1ccc(-c2noc(CN3CCCC3=O)n2)cc1NC(=O)c1cnc2ccccn12` [F143], the IC50 is reported as 314 nM. With `Cc1ccc(-c2noc(C3CCNCC3)n2)cc1NC(=O)c1cnc2ccccn12` [F290] the IC50 was 1890 nM. `Cc1ccc(-c2nc(N3CC(C)(O)C3)no2)cc1NC(=O)c1cnc2ccccn12` [F251] showed an IC50 of 157 nM. Work on `Cc1ccc(-c2noc(C3CN(S(=O)(=O)C4CCN(C(=O)OC(C)(C)C)CC4)C3)n2)cc1NC(=O)c1cnc2ccccn12` [F163] yielded an IC50 of 185 nM. Work on `Cc1ccc(-c2noc(C[C@@H]3CCCN3C(=O)OC(C)(C)C)n2)cc1NC(=O)c1cnc2ccccn12` [F211] yielded an IC50 of 106 nM. `Cc1ccc(-c2noc([C@@H](C)N3CCC(F)(F)C3)n2)cc1NC(=O)c1cnc2ccccn12` [F227] was tested, and the IC50 was 119 nM. Work on `COC(=O)N1CC[C@H]1c1nc(-c2ccc(C)c(NC(=O)c3cnc4ccc(C)cn34)c2)no1` [F262] yielded an IC50 of 309 nM. Compound `Cc1ccc(-c2noc(N3CCC3)n2)cc1NC(=O)c1cnc2ccccn12` [F248] has an IC50 of 132 nM. Work on `Cc1ccc(-c2noc([C@H]3CCCN3C(=O)OC(C)(C)C)n2)cc1NC(=O)c1cnc2ccccn12` [F278] yielded an IC50 of 1280 nM. `Cc1ccc(-c2noc(C3CN(C(=O)OCC(F)F)C3)n2)cc1NC(=O)c1cnc2ccccn12` [F259] gave an IC50 of 177 nM. With `Cc1ccc(-c2noc(C3CN(C(=O)OC(C)(C)C)CCO3)n2)cc1NC(=O)c1cnc2ccccn12` (stereo not drawn) [F175] the IC50 was 728 nM. For `Cc1ccc(-c2noc(C3(N)COC3)n2)cc1NC(=O)c1cnc2ccccn12` [F286], the IC50 was 1680 nM. `Cc1ccc(-c2noc(CN3CC(C#N)C3)n2)cc1NC(=O)c1cnc2ccccn12` [F129] showed an IC50 of 310 nM. `Cc1ccc(-c2noc([C@@H]3CCCN3C(=O)OC(C)(C)C)n2)cc1NC(=O)c1cnc2ccccn12` [F176] was tested, and the IC50 was 452 nM. With `Cc1ccc(-c2noc(C3CCCN3C(=O)OC(C)(C)C)n2)cc1NC(=O)c1cnc2ccccn12` (stereo not drawn) [F106] the IC50 was 935 nM. Compound `Cc1ccc(-c2noc([C@H]3CNCCO3)n2)cc1NC(=O)c1cnc2ccccn12` [F189] has an IC50 of 824 nM. `Cc1ccc(-c2noc(C3C[C@H](O)CN3)n2)cc1NC(=O)c1cnc2ccc(F)cn12` (stereo partly drawn) [F306] gave an IC50 of 8370 nM. Work on `Cc1ccc(-c2noc([C@@H]3CNCCO3)n2)cc1NC(=O)c1cnc2ccccn12` [F123] yielded an IC50 of 527 nM. Work on `Cc1ccc(-c2noc(CC3CN(C(=O)OC(C)(C)C)C3)n2)cc1NC(=O)c1cnc2ccccn12` [F283] yielded an IC50 of 1630 nM. With `CS(=O)(=O)N1CC(c2nc(-c3ccc(F)c(NC(=O)c4cnc5ccccn45)c3)no2)C1` [F154] the IC50 was 472 nM. Compound `COC(=O)N1CCC[C@H]1c1nc(-c2ccc(C)c(NC(=O)c3cnc4ccccn34)c2)no1` [F196] has an IC50 of 475 nM. In the case of `Cc1ccc(-c2noc([C@@H]3CCCN(C(=O)OC(C)(C)C)C3)n2)cc1NC(=O)c1cnc2ccccn12` [F186], the IC50 is reported as 291 nM. For `COC1CN(c2nc(-c3ccc(C)c(NC(=O)c4cnc5cc(C)ccn45)c3)no2)C1` [F254], the IC50 was 111 nM. `CC(=O)N1CCOC(c2nc(-c3ccc(C)c(NC(=O)c4cnc5ccccn45)c3)no2)C1` (stereo not drawn) [F195] was tested, and the IC50 was 566 nM. `COC(=O)N1CCOC(c2nc(-c3ccc(C)c(NC(=O)c4cnc5ccccn45)c3)no2)C1` (stereo not drawn) [F194] showed an IC50 of 105 nM. For `COC(=O)N1CC(c2nc(-c3ccc(C)c(NC(=O)c4cnc5cc(C#N)ccn45)c3)no2)C1` [F235], the IC50 was 181 nM.

Same assay, conditions: Table 2; values marked *: 20% FBS instead of 1% FBS; read-out: c-kit (Mo7e)
With `Cc1ccc(-c2noc([C@H]3CCCO3)n2)cc1NC(=O)c1cnc2ccccn12` [F103] the IC50 was 229 nM.
